The values that follow come from PubChem BioAssay (NCI).

What all share (assay): NCI anticancer screen, dose series, 48 h
In experiment [1] the test system is RXF 393 renal.
Experiment [2] relates to SF-268 CNS.
In experiment [3] the test system is RPMI-8226 leukemia.
Experiment [4] deals with MCF7 breast.
Experiment [5] relates to NCI-H23 lung.
The test system of experiment [6] is A498 renal.
In experiment [7] the test system is SNB-19 CNS.
In experiment [8] the test system is HS 578T breast.
Experiment [9] concerns BT-549 breast.
In experiment [10] the test system is HOP-92 NSCLC.

The structures appear in SMILES notation. “And” between values parts separate entries of the source, which are not always exact repeats. Identical values can stand only once.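 Results reflect a 48-hour exposure of cells in 96-well plates to compound at five concentrations. GI50 is the concentration that inhibits growth by half. At the TGI there is no net growth.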

For the compound `O=C(c1ccccc1)C1OC1c1ccc([N+](=O)[O-])cc1` (stereo not drawn), the GI50 in [1] is 6.38 µM; in experiment [2], 8.73 µM; in experiment [3] it was 8.29 µM; in experiment [4], 3.16 µM; in experiment [5], 2.84 µM; in experiment [6] it was 18.8 µM. The GI50 in [7] was 26.2 µM; in experiment [8], 3.33 µM; in experiment [9], 5.47 µM. The TGI in experiment [1] is 44.8 µM; in experiment [2], greater than 100 µM; in experiment [3] it was greater than 100 µM; in experiment [4], greater than 100 µM; in experiment [5], 14.1 µM; in [6], 53.1 µM. Also, the TGI in experiment [7] is greater than 100 µM; in experiment [8], 35.2 µM; in experiment [9], 44.3 µM.

As for `C[C@@]12CCC[C@@](C)(C(=O)O)C1CC[C@]13C[C@@](O)(CO)[C@](O)(CCC12)C3` (stereo partly drawn), the GI50 in [1], in experiment [2], in experiment [3], in experiment [4], in experiment [5] and in experiment [6] was greater than 100 µM each time. In addition, the GI50 in experiment [7], in [8] and in experiment [9] was greater than 100 µM throughout. For the same compound, the TGI in experiment [1], in experiment [2], in experiment [3], in [4], in [5] and in experiment [6] was greater than 100 µM each time. The TGI in [7], in [8] and in experiment [9] was greater than 100 µM throughout.

`Cc1cccc(C)c1NC(=O)C1C(=O)N(c2c(C)cccc2C)C(=O)/C1=N\N` (stereo not drawn): the TGI in experiment [1], in experiment [2], in experiment [3], in [10], in experiment [5] and in experiment [6] was greater than 100 µM in each case. This compound showed a TGI in [7] greater than 100 µM.

`CSc1nc(NC2OC(COC(C)=O)C(OC(C)=O)C(OC(C)=O)C2OC(C)=O)c2c(n1)OCC2=O` (stereo not drawn): the TGI in experiment [2], in experiment [3], in experiment [10], in [5], in experiment [6] and in experiment [7] was greater than 100 µM throughout.

For the compound `Cn1cnc([N+](=O)[O-])c1Sc1nccn1-c1cccc2ccccc12`, the TGI in [2] is 84.2 µM; in experiment [3], 49.9 µM; in [10], 54.9 µM; in experiment [5], 50.6 µM; in [6], greater than 100 µM; in [7] it was greater than 100 µM.

As for `COC(=O)C(C(=O)OC)C1CCCC(=O)C1` (stereo not drawn), the TGI in experiment [1], in [2], in [3], in experiment [10], in experiment [5] and in [6] was greater than 100 µM each time. In addition, in experiment [7], the TGI is greater than 100 µM.

As to `O=C(O)CCC(N=Cc1nc(-c2ccccc2)oc1O)C(=O)O` (stereo not drawn), the TGI in experiment [1], in experiment [2], in [3], in experiment [5], in [6] and in experiment [7] was greater than 100 µM each time.

As to `C[C@]12CC/C(=N\O)C=C1CC[C@@H]1C2CC[C@@]2(C)C1CC[C@@H]2OC1CCCCO1` (stereo partly drawn), the TGI in experiment [1] was 50.5 µM; in [2], 55.2 µM; in [3] it was 37.7 µM; in experiment [10] it was 31.9 µM; in experiment [5], 31.2 µM; in [6], greater than 100 µM. Moreover, in [7], the TGI came out at 33.1 µM.

On to `O=c1c(Br)cc2nc3ccccc3sc-2c1Br`, for which the TGI in experiment [1], in [2], in experiment [3], in experiment [10], in experiment [5] and in experiment [6] was greater than 100 µM in each case. Further, the TGI in experiment [7] was greater than 100 µM.

As for `O=c1ncc(F)cn1C1OC(CO)C(O)C1O` (stereo not drawn), the TGI in experiment [1] was greater than 100 µM; in experiment [2], greater than 77.4 µM; in experiment [3] it was greater than 100 µM; in experiment [10] it was greater than 100 µM; in [5] it was greater than 100 µM; in experiment [6], greater than 100 µM. The TGI in experiment [7] is greater than 69 µM.

For `CCOC(=O)c1cc2c(cc1Cl)SC(N(c1ccc(OC)cc1)S(=O)(=O)c1ccc(Cl)cc1)=NS2(=O)=O`, the GI50 in experiment [2] was 23.5 µM; in experiment [3], 31.3 µM; in experiment [4], 25.6 µM; in experiment [10], 19.1 µM; in experiment [5], 34.6 µM; in experiment [6], 80.8 µM. The GI50 in experiment [7] was 36.8 µM; in experiment [8] it was 46.7 µM. In addition, the TGI in experiment [2] was 67.6 µM; in experiment [3] it was greater than 100 µM; in experiment [4], 68.2 µM; in [10], 38.6 µM; in experiment [5], greater than 100 µM; in [6], greater than 100 µM. Also, the TGI in [7] and in [8] was greater than 100 µM in each case.

As for `CC(=O)OC[C@@H](COC(=O)/C=C/c1ccc(O)cc1)OC1OC(CO)C(O)C(O)C1O` (stereo partly drawn), the TGI in [1], in experiment [2], in [3], in [10], in experiment [5] and in experiment [6] was greater than 100 µM in each case. This compound yielded a TGI in [7] greater than 100 µM.

Turning to `CCOC(=O)N1CCC(=O)C(CNC23CC4CC(CC(C4)C2)C3)C1` (stereo not drawn), the TGI in experiment [1] was 33.2 µM; in experiment [2], greater than 100 µM; in experiment [10] it was 41 µM; in experiment [5], greater than 100 µM; in experiment [6] it was greater than 100 µM; in [7], greater than 100 µM.

Turning to `CCC[CH2][Sn]1([CH2]CCC)[O]CC(CN(C)Cc2ccccc2)[O]1` (stereo not drawn), the TGI in experiment [1] was found to be 23.1 µM; in experiment [2] it was 17.7 µM; in experiment [3], 7.79 µM; in experiment [10], 19.7 µM; in [5] it was 14.5 µM; in experiment [6] it was 29.4 µM. In experiment [7], this compound gave a TGI of 25.2 µM. In addition, the GI50 was 5.89 µM in experiment [2]; 2.75 µM in [3]; 3.94 µM in experiment [10]; 3.18 µM in experiment [5]; 15.1 µM in experiment [6]; 12.6 µM in [7].

As to `O=C(c1ccccc1)C1OC12C(=O)Nc1c(Cl)cc(Cl)cc12` (stereo not drawn), the TGI in [1] is greater than 100 µM; in experiment [2], greater than 100 µM; in experiment [3] it was greater than 100 µM; in experiment [10], greater than 93.2 µM; in experiment [5], greater than 100 µM; in experiment [6], greater than 100 µM. Also, the TGI in experiment [7] is greater than 100 µM.

With `COC(=O)C(C(=O)C(=O)Nc1ccc([N+](=O)[O-])cc1[N+](=O)[O-])c1nc2ccc(Cl)cc2[nH]c1=O` (stereo not drawn), the TGI in [1], in experiment [2], in experiment [3], in experiment [10], in experiment [5] and in [6] was greater than 100 µM each time. Moreover, the TGI in experiment [7] is greater than 100 µM.

Consider `C[n+]1c2cc(N)ccc2cc2ccc(N)cc21`, for which the TGI in experiment [1] is 3.59 µM [middle of 4 runs]; in experiment [2] it was 3.47 µM [middle of 4 runs]; in experiment [10], 5.78 µM [middle of 4 runs]; in experiment [5] it was 4.49 µM [middle of 4 runs]; in [6], 0.795 µM and 0.599 µM and 0.492 µM; in experiment [7], 5.01 µM [middle of 4 runs]. The TGI in experiment [8] is 6.31 µM [middle of 4 runs]; in [9] it was 4.05 µM [middle of 4 runs]. The GI50 in experiment [2] is 572 nM [middle of 4 runs]; in experiment [3], 1.89 µM [middle of 4 runs]; in experiment [5], 1.27 µM [middle of 4 runs]; in experiment [6] it was 0.162 µM and 0.152 µM and 0.0719 µM; in experiment [7], 933 nM [middle of 4 runs]; in experiment [8] it was 1.54 µM [middle of 4 runs]. Besides, the GI50 in experiment [9] was 1.61 µM [middle of 4 runs].

Consider `CC(C)([NH-])CO.CC(C)([NH-])CO.[Cl][Cd][Cl]`, for which the GI50 was 18.4 µM in experiment [2]; 14.5 µM in experiment [3]; 19.3 µM in [10]; 13.9 µM in experiment [5]; greater than 100 µM in experiment [7]. Besides, the TGI is 35.3 µM in [2]; 43.8 µM in [3]; 34 µM in experiment [10]; 28.4 µM in experiment [5]; greater than 100 µM in [7].

As for `Oc1ccc2ccccc2c1N=Nc1ccsc1`, the TGI in [1], in experiment [2], in [3], in [10], in experiment [5] and in [6] was greater than 100 µM throughout. Besides, the TGI in [7] was greater than 100 µM.

Regarding `Cc1ccc(S(=O)(=O)NC2(C=O)CCCC3CCCCC32)cc1` (stereo not drawn), the TGI in experiment [1], in experiment [2], in experiment [3], in [6] and in [7] was greater than 100 µM throughout.

With `C/C(CC(=O)Nc1ccc(C)c(C)c1)=N\NC(N)=O`, the TGI in experiment [1], in [2], in [3], in experiment [10], in experiment [5] and in experiment [6] was greater than 100 µM in each case.

With `Cc1ccc(NC(=O)CC2Sc3ccccc3NC2=O)c(C)c1` (stereo not drawn), the TGI in [1] was found to be 31 µM; in experiment [2], 60.7 µM; in experiment [3], 43.9 µM; in experiment [10], 39.5 µM; in [5], 33.7 µM; in experiment [6], 30.1 µM. In experiment [7], this compound displayed a TGI of 30.3 µM.

On to `O=C(CCN1CCN(c2ccccc2)CC1)N1CCc2c([nH]c3ccccc23)C1c1cccnc1` (stereo not drawn), for which the TGI in experiment [1] was 61 µM; in [10], 37.7 µM; in experiment [5], 57.7 µM; in [6], 37.7 µM; in experiment [7], 66.7 µM.

With `COC(=O)c1cccn1C(=O)n1cccc1`, the TGI in [1], in [2], in experiment [10], in experiment [5], in [6] and in [7] was greater than 100 µM each time.

With `O=[P+](O)c1ccsc1`, the TGI in experiment [1], in experiment [2], in [3], in experiment [10], in experiment [5] and in experiment [6] was greater than 100 µM throughout.

`CC(=O)OC(C)(C)/C(C)=C/C(=O)O[C@H]1C(=O)O[C@@H]2C[C@H]3[C@H](C)C(=O)C(O[C@@H]4O[C@H](CO)[C@@H](O)[C@H](O)[C@H]4O)=C[C@]3(C)[C@H]3[C@@H](O)[C@H](O)[C@@]4(C(=O)O)OC[C@]32[C@@H]14`: the GI50 in experiment [1] is 37.3 µM; in experiment [2] it was greater than 100 µM; in experiment [4] it was 27.6 µM; in experiment [10], 65.7 µM; in [5], greater than 100 µM; in experiment [6], greater than 100 µM. Besides, the GI50 in experiment [7] and in experiment [8] was greater than 100 µM each time. The TGI in experiment [1], in experiment [2], in [4], in experiment [10], in experiment [5] and in [6] was greater than 100 µM throughout. Further, the TGI in [7] and in experiment [8] was greater than 100 µM each time.

For the compound `Cc1cccc(C(C)(C)C)c1NC(=O)CC1C(=O)Nc2ccccc2S1(=O)=O` (stereo not drawn), the TGI is 29 µM in experiment [1]; 25.5 µM in [2]; 17.2 µM in experiment [3]; 25.3 µM in experiment [10]; 18.9 µM in experiment [5]; 28.4 µM in experiment [6]. In addition, in [7], the TGI came to 29.2 µM.

Turning to `CC12CCC3(OCCO3)C(OC(=O)c3ccccc3)=C1CCC21OCCO1` (stereo not drawn), the TGI in experiment [1], in experiment [2], in experiment [3], in experiment [10], in experiment [6] and in experiment [7] was greater than 100 µM each time.

For the compound `CN(C)CCNC(=O)c1cccc(N(C)C(=O)c2ccccc2)c1[N+](=O)[O-]`, the TGI in experiment [2], in [4], in [5], in [6], in [7] and in [8] was greater than 100 µM each time. This compound also yielded a TGI in experiment [9] greater than 100 µM.
